Values joined by “and” are separate entries in the source; they are usually repeats but may differ in a detail not shown here. Equal values may be shown once.
Test: molar heat capacity at constant pressure
Conditions: 101.33 kPa, Vacuum adiabatic calorimetry

CCC[n+]1ccn(C)c1.[Br-] [1-methyl-3-propylimidazolium bromide]
molar heat capacity at constant pressure
Conditions	Crystal 2	Glass
5 K	0.294 J/K/mol	1 J/K/mol
5.52 K	0.401 J/K/mol	–
5.87 K	0.492 J/K/mol	–
6.21 K	0.596 J/K/mol	–
6.59 K	0.729 J/K/mol	–
6.61 K	–	2.26 J/K/mol
6.94 K	–	2.56 J/K/mol
6.97 K	0.883 J/K/mol	–
7.33 K	–	2.953 J/K/mol
7.35 K	1.057 J/K/mol	–
7.73 K	1.253 J/K/mol	–
7.74 K	–	3.376 J/K/mol
8.12 K	1.472 J/K/mol	–
8.14 K	–	3.817 J/K/mol
8.51 K	1.709 J/K/mol	–
8.55 K	–	4.303 J/K/mol
8.89 K	1.969 J/K/mol	–
8.96 K	–	4.799 J/K/mol
9.28 K	2.25 J/K/mol	–
9.37 K	–	5.312 J/K/mol
9.68 K	2.56 J/K/mol	–
9.78 K	–	5.854 J/K/mol
10 K	2.83 J/K/mol	6.16 J/K/mol
10.07 K	2.896 J/K/mol	–
10.19 K	–	6.42 J/K/mol
10.57 K	3.349 J/K/mol	–
10.71 K	–	7.156 J/K/mol
11.17 K	3.934 J/K/mol	–
11.34 K	–	8.069 J/K/mol
11.78 K	4.563 J/K/mol	–
11.96 K	–	9.014 J/K/mol
12.39 K	5.251 J/K/mol	–
12.59 K	–	10.01 J/K/mol
12.76 K	–	10.27 J/K/mol
13 K	5.972 J/K/mol	–
13.23 K	–	11.02 J/K/mol
13.27 K	–	11.09 J/K/mol
13.62 K	6.746 J/K/mol	–
13.86 K	–	12.06 J/K/mol
13.9 K	–	12.12 J/K/mol
14.24 K	7.548 J/K/mol	–
14.5 K	–	13.11 J/K/mol
14.53 K	–	13.18 J/K/mol
14.85 K	8.382 J/K/mol	–
15 K	8.58 J/K/mol	13.96 J/K/mol
15.17 K	–	14.27 J/K/mol
15.58 K	9.404 J/K/mol	–
15.96 K	–	15.61 J/K/mol
16.42 K	10.63 J/K/mol	–
16.9 K	–	17.24 J/K/mol
17.26 K	11.9 J/K/mol	–
17.83 K	–	18.9 J/K/mol
18.09 K	13.21 J/K/mol	–
18.77 K	–	20.57 J/K/mol
18.93 K	14.56 J/K/mol	–
19.7 K	–	22.25 J/K/mol
19.77 K	15.94 J/K/mol	–
20 K	16.31 J/K/mol	22.8 J/K/mol
20.91 K	17.83 J/K/mol	–
20.95 K	–	24.53 J/K/mol
22.33 K	20.27 J/K/mol	–
22.51 K	–	27.36 J/K/mol
23.77 K	22.77 J/K/mol	–
24.09 K	–	30.19 J/K/mol
25 K	24.9 J/K/mol	31.8 J/K/mol
25.2 K	25.25 J/K/mol	–
25.66 K	–	32.96 J/K/mol
26.63 K	27.75 J/K/mol	–
27.23 K	–	35.71 J/K/mol
28.07 K	30.25 J/K/mol	–
28.81 K	–	38.42 J/K/mol
29.52 K	32.71 J/K/mol	–
30 K	33.56 J/K/mol	40.46 J/K/mol
30.4 K	–	41.1 J/K/mol
31.17 K	35.56 J/K/mol	–
32.13 K	–	43.97 J/K/mol
33.03 K	38.66 J/K/mol	–
34.01 K	–	46.95 J/K/mol
34.89 K	41.68 J/K/mol	–
35 K	41.84 J/K/mol	48.45 J/K/mol
35.9 K	–	49.88 J/K/mol
36.76 K	44.57 J/K/mol	–
37.79 K	–	52.63 J/K/mol
38.63 K	47.38 J/K/mol	–
39.67 K	–	55.27 J/K/mol
40 K	49.44 J/K/mol	55.78 J/K/mol
40.49 K	50.15 J/K/mol	–
41.76 K	–	58.17 J/K/mol
42.5 K	53 J/K/mol	–
44.05 K	–	61.22 J/K/mol
44.67 K	55.99 J/K/mol	–
45 K	56.45 J/K/mol	62.48 J/K/mol
46.42 K	–	64.28 J/K/mol
46.85 K	58.9 J/K/mol	–
48.69 K	–	67.11 J/K/mol
49.03 K	61.73 J/K/mol	–
50 K	62.88 J/K/mol	68.62 J/K/mol
50.77 K	–	69.55 J/K/mol
51.21 K	64.4 J/K/mol	–
52.86 K	–	71.87 J/K/mol
53.39 K	66.92 J/K/mol	–
54.95 K	–	74.14 J/K/mol
55.57 K	69.38 J/K/mol	–
57.04 K	–	76.42 J/K/mol
57.75 K	71.78 J/K/mol	–
59.13 K	–	78.63 J/K/mol
59.93 K	74.14 J/K/mol	–
60 K	74.22 J/K/mol	79.52 J/K/mol
61.23 K	–	80.83 J/K/mol
62.13 K	76.42 J/K/mol	–
63.32 K	–	82.92 J/K/mol
64.33 K	78.63 J/K/mol	–
65.42 K	–	84.99 J/K/mol
66.53 K	80.71 J/K/mol	–
67.53 K	–	86.98 J/K/mol
68.72 K	82.68 J/K/mol	–
69.62 K	–	88.87 J/K/mol
70 K	83.84 J/K/mol	89.28 J/K/mol
70.92 K	84.56 J/K/mol	–
71.72 K	–	90.74 J/K/mol
73.18 K	86.57 J/K/mol	–
73.83 K	–	92.54 J/K/mol
75.5 K	88.58 J/K/mol	–
75.93 K	–	94.45 J/K/mol
77.81 K	90.59 J/K/mol	–
78.04 K	–	96.34 J/K/mol
78.3 K	90.96 J/K/mol	–
78.68 K	91.25 J/K/mol	–
79.18 K	–	97.3 J/K/mol
80 K	92.3 J/K/mol	97.87 J/K/mol
80.13 K	92.58 J/K/mol	–
80.17 K	–	98.2 J/K/mol
80.36 K	92.62 J/K/mol	–
80.94 K	93.01 J/K/mol	–
81.21 K	–	98.9 J/K/mol
82.27 K	94.04 J/K/mol	–
82.29 K	–	99.76 J/K/mol
82.46 K	94.26 J/K/mol	–
82.87 K	94.47 J/K/mol	–
83.14 K	–	100.3 J/K/mol
84.2 K	95.47 J/K/mol	–
84.42 K	–	101.2 J/K/mol
84.8 K	95.84 J/K/mol and 95.9 J/K/mol	–
85.07 K	–	101.7 J/K/mol
86.13 K	96.85 J/K/mol	–
86.73 K	97.28 J/K/mol	–
87.01 K	–	103.1 J/K/mol
88.08 K	98.24 J/K/mol	–
88.67 K	98.67 J/K/mol	–
88.94 K	–	104.6 J/K/mol
90 K	99.64 J/K/mol	105.4 J/K/mol
90.04 K	99.66 J/K/mol	–
90.6 K	100 J/K/mol	–
90.88 K	–	106 J/K/mol
92.01 K	101.1 J/K/mol	–
92.54 K	101.4 J/K/mol	–
92.82 K	–	107.4 J/K/mol
93.99 K	102.5 J/K/mol	–
94.48 K	102.8 J/K/mol	–
94.77 K	–	108.7 J/K/mol
95.98 K	103.8 J/K/mol	–
96.43 K	104.1 J/K/mol	–
96.72 K	–	110.1 J/K/mol
97.97 K	105.1 J/K/mol	–
98.38 K	105.4 J/K/mol	–
98.66 K	–	111.4 J/K/mol
99.98 K	106.5 J/K/mol	–
100 K	106.4 J/K/mol	112.3 J/K/mol
100.34 K	106.7 J/K/mol	–
100.62 K	–	112.7 J/K/mol
101.99 K	107.7 J/K/mol	–
102.29 K	107.9 J/K/mol	–
102.57 K	–	114 J/K/mol
104.01 K	109 J/K/mol	–
104.25 K	109.1 J/K/mol	–
104.53 K	–	115.3 J/K/mol
106.04 K	110.2 J/K/mol	–
106.21 K	110.3 J/K/mol	–
106.49 K	–	116.5 J/K/mol
108.08 K	111.5 J/K/mol	–
108.17 K	111.6 J/K/mol	–
108.45 K	–	117.8 J/K/mol
110 K	112.6 J/K/mol	118.7 J/K/mol
110.12 K	112.7 J/K/mol	–
110.14 K	112.7 J/K/mol	–
110.41 K	–	119 J/K/mol
112.1 K	113.9 J/K/mol	–
112.17 K	113.9 J/K/mol	–
112.38 K	–	120.2 J/K/mol
114.07 K	115 J/K/mol	–
114.22 K	115.1 J/K/mol	–
114.35 K	–	121.4 J/K/mol
116.04 K	116.2 J/K/mol	–
116.28 K	116.3 J/K/mol	–
116.32 K	–	122.6 J/K/mol
118.01 K	117.3 J/K/mol	–
118.29 K	–	123.8 J/K/mol
118.34 K	117.5 J/K/mol	–
119.98 K	118.4 J/K/mol	–
120 K	118.4 J/K/mol	124.8 J/K/mol
120.27 K	–	124.9 J/K/mol
120.41 K	118.7 J/K/mol	–
121.96 K	119.4 J/K/mol	–
122.24 K	–	126.1 J/K/mol
122.48 K	119.8 J/K/mol	–
123.94 K	120.6 J/K/mol	–
124.22 K	–	127.2 J/K/mol
124.56 K	121 J/K/mol	–
125.91 K	121.7 J/K/mol	–
126.2 K	–	128.4 J/K/mol
126.63 K	122.1 J/K/mol	–
127.9 K	122.8 J/K/mol	–
128.18 K	–	129.5 J/K/mol
128.72 K	123.2 J/K/mol	–
129.88 K	123.8 J/K/mol	–
130 K	123.9 J/K/mol	130.6 J/K/mol
130.17 K	–	130.7 J/K/mol
130.8 K	124.4 J/K/mol	–
131.86 K	124.9 J/K/mol	–
132.15 K	–	131.8 J/K/mol
132.89 K	125.5 J/K/mol	–
133.84 K	126 J/K/mol	–
134.14 K	–	132.9 J/K/mol
134.99 K	126.6 J/K/mol	–
135.84 K	127 J/K/mol	–
136.13 K	–	134 J/K/mol
137.08 K	127.7 J/K/mol	–
137.83 K	128 J/K/mol	–
138.12 K	–	135.2 J/K/mol
139.18 K	128.7 J/K/mol	–
139.83 K	129.1 J/K/mol	–
140 K	129.2 J/K/mol	136.2 J/K/mol
140.12 K	–	136.3 J/K/mol
141.28 K	129.8 J/K/mol	–
141.83 K	130.1 J/K/mol	–
142.11 K	–	137.4 J/K/mol
143.39 K	130.9 J/K/mol	–
143.83 K	131.1 J/K/mol	–
144.11 K	–	138.5 J/K/mol
145.49 K	132 J/K/mol	–
145.83 K	132.1 J/K/mol	–
146.11 K	–	139.7 J/K/mol
147.6 K	133 J/K/mol	–
